Assay results reported in patent US11167006B2 (Shanghai Tianci Life Science Development Co., Ltd., priority 2016, dated 2021).
Square brackets hold non-standard residues; d marks the D form. Ends that are not written are not given here.

How the values were obtained:
[1] = tested on: acute pain caused by photothermal therapy in male mice of Kunming strain; settings: mouse tail flick, lateral ventricle; from ZL201210098832.2; cited from earlier work
[2] = tested on: formalin-induced pain mice; settings: lateral ventricle; Br J Pharmacol 2016; cited from earlier work
[3] = tested on: CCI-induced neuralgia in mouse; experiment: Analgesic tolerance and cross-tolerance in CCI-induced neuralgia; assay type: in vivo; settings: subcutaneous, seven consecutive days
Protocol: CCI-induced neuralgia in mouse was detected using a PL-200 thermal tingling instrument and an electronic Von Frey tenderness instrument. The thermal pain threshold of one group of normal mice and the mechanical pain threshold of another group of normal mice were first determined. The mice were then anesthetized with sodium pentobarbital 80 mg/kg mouse body weight) and the mice were fixed in the prone position. The right sciatic nerve was exposed and 3 mild ligation rings were made around the sciatic nerve using a 4-0 chromic catgut, 1 mm intervals. The ligation intensity is preferably a slight tremor in the right hind leg. On the 10th day after surgery, the thermal pain sensitivity value and mechanical pain sensitivity value of the right hind paw of the two groups of mice were determined. Compound 9 or morphine was then administered subcutaneously for seven consecutive days, and compound 9 was given to mice in the morphine group on day 8. The thermal tingling and mechanical pain thresholds at different time points after administration were recorded.
The experimental data were expressed as mean±standard error (Means±S.E.M.). Data for differences between groups treated with the same drug were analyzed by one-way ANOVA (Tukey HSD test of one-way ANOVA) for statistics and analysis, *P<0.05. **P<0.01, ***P<0.001 indicates a significant difference between the pain threshold of the drug-treated group and the pain threshold after the First day of administration.

[4] = tested on: male mice of Kunming strain; experiment: Analgesic tolerance test (photothermal tail flick); assay type: in vivo, mouse
Protocol: The mice were injected with the drug in the lateral ventricle of the mice for six consecutive days or in the subcutaneous of the mice for eight consecutive days, and their analgesic tolerance were detected by photothermal tail flick method, and the pharmacological activity of the compounds of the present invention in analgesic tolerance was further explored.
In male mice of Kunming strain, the drug was injected continuously in the lateral ventricle for six days, once a day, and the effect of continuous injection of drugs on the pain sensation was detected by a photothermal tail flick instrument. The ambient temperature is controlled at 22±1° C., and the experimental animals are free to eat and drink. The test drug was injected into the lateral ventricle of the mouse for 6 consecutive days, 4 μl per injection. The basic tail flick incubation period (3-5 seconds) was measured before the first day of drug injection, and those mice that were too sensitive or dull were discarded. The tail flick incubation period of 5, 10, 15, 20, 30 min after administration on the first and sixth days was recorded in the experiment. To prevent scald on the tail of the mouse, the maximum tail flick incubation period was set as 10 seconds,
In addition, we further studied the tolerance of subcutaneous administration of compound 9 and morphine in the photothermal tail flick test. The ambient temperature is controlled at 22±1° C., and the experimental animals are free to eat and drink. First, the basic tail flick incubation period (3-5 seconds) of the mice was measured before administration, and then compound 9 or morphine was administered subcutaneously for eight consecutive days. The tail flick incubation period of 10, 15 and 20 minutes after daily administration were recorded. To prevent scald on the tail of the mouse, the maximum tail flick incubation period was set as 10 seconds.
The experimental data is expressed by MPE (maximum possible effect), MPE (%)=100×[(pain threshold after administration−basal pain threshold)/(10 seconds−basal pain threshold)]. The analgesic tolerance of the drug was compared using the MPE value at the time of maximum analgesic effect of the drug. MPE data was expressed as mean±standard error (Means±S.E.M.). The difference in the analgesic effect of continuous administration in the lateral ventricle of the mice for six days was statistically analyzed by the paired T test, and the difference in the analgesic effect of subcutaneous continuous administration for eight days was analyzed by One-way analysis of variance (one-way ANOVA's Tukey HSD test) for statistics, and ***P<0.001 indicates a significant difference from the analgesic effect of the drug injected on the first day.

[5] = tested on: movement activity of mice; experiment: Movement activity, open field experiment; assay type: in vivo, mouse; settings: subcutaneous 10 mg/kg
Protocol: The movement activity of the mice was tested by open field experiments. The experimental device is consisted of a 50×50×50 cm topless black plexiglass box and a movement monitoring system. The experiment was carried out in a soundproof environment with an indoor temperature being controlled at 22±1° C. After the experiment was started, the mice were first recorded for free movement within 30 minutes, and then compound 9 or morphine was administered subcutaneously, the movement of the mice was detected for another 150 minutes. Before the experiment for each mouse was started, the whole box was wiped with alcohol as a whole to exclude the residual odor of the previous mouse from affecting the accuracy of the data.
The experimental data were expressed as mean±standard error (Means±S.E.M.), and the data for differences between groups treated with different drugs were analyzed by one-way ANOVA (Bonferroni test in one-way ANOVA) for statistics and analysis, ***P<0.001 represents that there was a significant difference between the movement activity of the drug-treated group and that of the saline group.

mice [6] = experiment: Naloxone withdrawal test; assay type: in vivo, mouse; settings: s.c. at 8 hours intervals 20, 40, 60, 80, 100, 100, 100 mg/kg; naloxone 1 mg/kg; 30 minutes
[7] = tested on: CFA-induced inflammatory pain in mouse; experiment: Analgesic tolerance and cross-tolerance in CFA-induced inflammatory pain; assay type: in vivo; settings: mechanical pain, lateral ventricle 6 days or subcutaneous 7 days
Protocol: CFA-induced inflammatory pain in mouse was detected by an electronic Von Frey tenderness instrument, and the basal pain threshold of normal mice was Firstly determined. Then […] of CFA solution was injected subcutaneously into the mouse paw. After 4 days, the mechanical pain sensitivity value of the injected paw of the mouse was measured. And then compound 9 or morphine was injected for 6 consecutive days (lateral ventricle) or 7 consecutive days (subcutaneously), and the mice in morphine group were given compound 9 on day 7 (lateral ventricle) or day 8 (subcutaneous). The mechanical pain thresholds at different time points after administration were recorded.
The experimental data were expressed as mean± standard error (Means±S.E.M.). Data for differences between groups treated with the same drug were analyzed by one-way ANOVA (Tukey HSD test of one-way ANOVA) for statistics and analysis, *P<0.05. **P<0.005, ***P<0.001 indicates a significant difference between the mechanical pain threshold of the drug-treated group and the pain threshold after the first day of administration.

[8] = tested on: gastrointestinal movement of male mice of Kunming strain; experiment: Gastrointestinal movement in vivo (activated carbon suspension); design: species or system mouse; settings: 10 mg/kg (compound 9 subcutaneous; morphine positive control)
Protocol: Male mice of Kunming strain, weighing 26±2 g. The commonly used toner detection method was used in the detection of astrointestinal movement in vivo. The specific experimental procedure was: before the gastrointestinal movement experiment, the mice were fasted for 16 hours (free drinking during fasting), then the drug was injected through spinal cord or subcutaneously, and after 15 minutes, the activated carbon suspension prepared in advance (a physiological saline suspension containing 5% of activated carbon and 10% gum arabic) was orally perfused into the stomach in a volume of 0.1 ml per 10 g of body weight. After 30 minutes from the perfusion of activated carbon suspension, the animals were sacrificed by cervical dislocation, and then the small intestine of the animal from the pylorus to the cecum was carefully taken out. The total lengths of the small intestine from the pylorus to the cecum and the furthest distance from which the activated carbon suspension moves were measured.
Gastrointestinal movement test results were evaluated by a percentage of gastrointestinal movement, and the percentage of gastrointestinal movement per mouse was calculated by dividing the moving distance of the activated carbon suspension by the total length of the small intestine. The relevant data were expressed as mean of the percentage of gastrointestinal movement±standard error (Means±S.E.M.), the data for differences between groups treated with different drug concentrations were analyzed by one-way ANOVA (Dunnett test in one-way ANOVA) for statistics and analysis, ***P<0.001 represented that there was a significant difference between the percentage of gastrointestinal movement of the drug-treated group and that of the saline group.

mice [9] = experiment: Conditional position preference test (CPP); assay type: in vivo, mouse; settings: subcutaneous 10 mg/kg
Protocol: The conditional position preference experimental device is a closed device (45×20×20 cm) assembled from transparent plexiglass plates. Two 20×20×20 cm conditional preference boxes are located at both ends of the device, with a small compartment 5×20×20 cm having a passage (5×5×5 cm) connected in the middle. On the first day of the experiment, the passage was kept open, the mice was placed into the device for 15 min, and the mice that had been explored for more than 9 min in any of the preference boxes were excluded. […] On day 5, the passage was kept opened again to ensure that the mice were free to enter into the two preference boxes, and the time that the mice stayed in the drug matching preference box within 15 minutes of the total time was recorded.
The experimental relevant data were expressed as mean±standard error (Means±S.E.M.), and the conditional position preference score represents the time spent on the drug matching preference box on day 5 of each mouse minus the time on the first day in this preference box. Differences between groups treated with different drugs in CPP trials were analyzed by one-way ANOVA (Tukey HSD test in one-way ANOVA) for data statistics and analysis.

[10] = lateral ventricle injection, once a day, morphine 4 nmol

Tyr-D-Ala-Gly-Phe-Gln-Pro-Gln-Arg-Phe-NH2 (Y[dA]GFQPQRF-NH2) [BN-9]
analgesic ED50 value of BN-9 [1]: 0.39 nmol | analgesic ED50 value of BN-9, formalin first phase pain [2]: 0.12 nmol | analgesic ED50 value of BN-9, formalin second phase pain [2]: 1.14 nmol

CN1CC[C@]23c4c5ccc(O)c4O[C@H]2[C@@H](O)C=C[C@H]3[C@H]1C5 [morphine, reference compound]
analgesic tolerance on continuous injection, mechanical pain sensitivity [3]: from the fourth day | analgesic tolerance on continuous injection, thermal sensitivity pain [3]: from the third day | analgesic tolerance ([4]; eight consecutive days subcutaneous, 10 mg/kg): significantly reduced from day 4 | analgesic effect (MPE) after six days of continuous injection [4, 10]: 36.15% | analgesic effect (MPE) on the first day [4, 10]: 86.97% | analgesic tolerance ([4]; six consecutive days lateral ventricle injection, compounds at 3 times ED50, morphine 4 nmol): can significantly cause analgesia tolerance | total distance of movement [5]: 439.73 m | average number of jumps after naloxone withdrawal (mice [6]): 47 | analgesic tolerance on continuous injection [7]: significantly reduced from the fourth day | percentage of gastrointestinal movement [8]: 16.92% | conditional positional preference (mice [9]): produced significant conditional positional preference
